Where two headings read alike, the source gives them in different places.
Assays:
[1] = system: fibrosarcoma cell line HT1080; assay: 2HG inhibition assay on fibrosarcoma cell line HT1080 (LC-MS/MS); type: cell-based, Human; conditions: HT-1080 cells, 48 h incubation, read-out: HT1080 2HG Inhibitory IC50
Procedure: In this experiment, the inhibitory activity of the compounds of the present invention against the 2HG concentration level of fibrosarcoma cell line HT1080 was measured by the following method.
Different concentrations of compounds were added and incubated for 48 h. HT-1080 cells were trypsinized and collected, and centrifuged at 500 g for 5 min. The supernatant was discarded, and the cells were resuspended in 1 ml of PBS and the number of cells per sample was counting by a counter (Beckman coulter Z2, Beckman) and adjusted to be the same. After centrifuged at 500 g for 5 min, the supernatant was discarded, and the cell pellet was stored in a refrigerator at −80° C. for 2HG detection.
Sample Treatment: an ice acetonitrile solution containing 200 μL of verapamil (internal standard) was added to sample tubes respectively, vortexed for 1 min, and placed in a refrigerator at 4° C. for 20 min to lyse the cells. 100 μL of sample was taken, another 100 μL of lysate was taken in a 96-well plate and dried with a nitrogen blower, and 100 μL of water was added and vortexed to be uniform.
1. Derivatization: 100 μL of o-benzylhydroxylamine hydrochloride derivatization reagent was added and shaken on a shaker for 1 h to complete the derivatization reaction.
2. Solution extraction: 300 μL of ethyl acetate was added separately, shaken for 20 min, centrifuged at 1900 rpm for 5 min, and placed in a refrigerator at −70° C. for 40 min. All the ethyl acetate was taken up to another sample plate, and dried with a nitrogen blower. 150 μL MEOH/H2O (v/v, 1/1) was added for reconstitution.
3. Bioanalysis: All of the above samples were analyzed by LC-MS/MS (Waters ACQUITY H-Class System, Waters/AB6500, Sciex) after centrifuged at 4000 rpm for 10 min.
The inhibition rate of the sample was obtained by the following formula: […]
IC50 values were calculated using GraphPad Prism software.

IDH1 R132H = IDH1 R132H (Homo sapiens (Human), UniProt O75874, R132H); assay: Effect on the enzyme activity of IDH1 at the molecular level (NADPH consumption, diaphorase/resazurin); type: biochemical; conditions: α-KG 1 mM, NADPH 4 μM, 60 min room temperature
Procedure: The enzyme used in the experiment was purchased from cayman Co.
The substrates α-KG, NADPH and Diaphorase were purchased from Sigma; Resazurin was purchased from J&K; and the remaining reagents were purchased from Sinopharm Chemical Reagent Co., Ltd.
Compound preparation: Compound 12000 g was centrifuged for 5 min, DMSO was added to prepare 10 mM, which was vortexed, then ultrasonic treatment for 10 minutes, and stored at −40° C. The stock solution was diluted firstly with DMSO to a 10 μM solution when tested and then gradient-diluted for 3 times to a different test concentration.
Test method: The enzyme activity of IDH1 to convert α-KG to 2HG was measured by the consumption of NADPH. After the enzymatic reaction was completed, a catalytic excess of diaphorase and reazurin were added, and the resulting fluorescent signal could reflect the amount of remaining NADPH. […] IC50 values were calculated using GraphPad Prism software.

Sequence of IDH1 R132H (O75874 whole entry R132H): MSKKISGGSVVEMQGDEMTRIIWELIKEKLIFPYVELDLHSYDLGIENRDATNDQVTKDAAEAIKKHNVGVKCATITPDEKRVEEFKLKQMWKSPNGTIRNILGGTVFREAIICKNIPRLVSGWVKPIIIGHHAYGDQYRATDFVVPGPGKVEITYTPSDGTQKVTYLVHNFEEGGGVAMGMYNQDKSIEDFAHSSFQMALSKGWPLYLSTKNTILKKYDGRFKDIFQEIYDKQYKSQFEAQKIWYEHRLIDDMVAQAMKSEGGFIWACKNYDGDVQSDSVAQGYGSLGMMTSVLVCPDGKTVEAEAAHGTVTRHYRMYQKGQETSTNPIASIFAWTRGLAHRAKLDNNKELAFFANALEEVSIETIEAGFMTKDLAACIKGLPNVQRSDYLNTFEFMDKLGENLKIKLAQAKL

| Compound | IC50 [1] | IC50 (IDH1 R132H) | IC50 ([1]; Homo sapiens, HT-1080, 48 h) | IC50 ([1]; Homo sapiens) |
| --- | --- | --- | --- | --- |
| N#Cc1ccnc(N2C(=O)CC[C@H]2C(=O)N(c2cncc(F)c2)[C@H](C(=O)NC2CC(F)(F)C2)c2ccccc2Cl)c1 [AG120, reference compound] | – | – | – | 0.03 µM |
| CC(C)[C@H]1CN(C)C(=O)N1c1ccnc(NC2(c3cn(-c4cc(Cl)cc(Cl)c4)cn3)CC2)n1 [Compound 26, (S)-3-(2-((1-(1-(3,5-dichlorophenyl)-1H-imidazol-4-yl)cyclopropyl)amino)pyrimidin-4-yl)-4-isopropyl-1-methylimidazolidine-2-one] | – | – | 0.027 µM | – |
| CC(C)c1cccc(-n2cnc(C3(Nc4nccc(N5C(=O)N(C)C[C@@H]5C(C)C)n4)CC3)c2)c1 [Compound 30, (S)-3-(2-((1-(1-(3-isopropylphenyl)-1H-imidazol-4-yl)cyclopropyl)amino)pyrimidin-4-yl)-4-isopropyl-1-methylimidazolidne-2-one] | – | – | 0.015 µM | – |
| CC(C)[C@H]1CN(C)C(=O)N1c1ccnc(NC2(c3cn(-c4cccc(C5CC5)c4)cn3)CC2)n1 [Compound 34] | – | – | 0.016 µM | – |
| COc1cc(Cl)cc(-n2cnc(C3(Nc4nccc(N5C(=O)N(C)C[C@@H]5C(C)C)n4)CC3)c2)c1 [Compound 38, (S)-3-(2-((1-(1-(3-chloro-5-methoxyphenyl)-1H-imidazol-4-yl)cyclopropyl)amino)pyrimidin-4-yl)-4-isopropyl-1-methylimidazolidine-2-one] | – | – | 0.014 µM | – |
| CC(C)[C@@H]1N(c2ccnc(N[C@@H](C)c3cn(-c4ccc(C(F)(F)F)cc4)cn3)n2)C(=O)N(C)C12CC2 [Compound 103, (S)-7-isopropyl-4-methyl-6-(2-(((S)-1-(1-(4-(trifluoromethyl)phenyl)-1H-imidazole-4-yl) Ethyl)amino)-4-yl)-4,6-diazaspiro[2.4]hept-5-one] | – | 0.1 to 1 µM | – | – |
| [2H]C1([2H])[C@H](C(C)C)N(c2ccnc(N[C@@H](C)c3cc(C)c(-c4ccnc(C(F)(F)F)c4)cn3)n2)C(=O)N1C [Compound 109] | – | 0.1 to 1 µM | – | – |
| CC(C)[C@H]1CN(C)C(=O)N1c1ccnc(NC2(c3ccc(-c4ccnc(C(F)(F)F)c4)cn3)CC2)n1 [Compound 113] | – | 0.1 to 1 µM | – | – |

The next lines start with the values.

| IC50 [1] | IC50 (IDH1 R132H) | IC50 ([1]; Homo sapiens, HT-1080, 48 h) | IC50 ([1]; Homo sapiens) | Compound |
| --- | --- | --- | --- | --- |
| 0.066 µM | < 0.1 µM | – | – | CC(C)[C@H]1C(C)NC(=O)N1c1ccnc(N[C@@H](C)c2cn(-c3ccc(Cl)cc3)cn2)n1 (single isomer, unassigned) [Compound 86] |
| 0.029 µM | < 0.1 µM | – | – | CC(C)[C@H]1C(C)NC(=O)N1c1ccnc(N[C@@H](C)c2cn(-c3ccc(Cl)cc3)cn2)n1 (single isomer, unassigned) [Compound 87] |
| – | < 0.1 µM | 0.024 µM | – | CC(C)[C@H]1C(C)N(C)C(=O)N1c1ccnc(N[C@@H](C)c2cn(-c3ccc(Cl)cc3)cn2)n1 (single isomer, unassigned) [Compound 90] |
| 0.012 µM | < 0.1 µM | – | – | CC(C)[C@H]1C(C)N(C)C(=O)N1c1ccnc(N[C@@H](C)c2cn(-c3ccc(Cl)cc3)cn2)n1 (single isomer, unassigned) [Compound 91] |
| – | < 0.1 µM | 0.033 µM | – | CC(C)[C@H]1C(C)NC(=O)N1c1ccnc(N[C@@H](C)c2cn(-c3ccc(C(F)(F)F)cc3)cn2)n1 (single isomer, unassigned) [Compound 92] |
| 0.0345 µM | < 0.1 µM | – | – | CC(C)[C@H]1C(C)NC(=O)N1c1ccnc(N[C@@H](C)c2cn(-c3ccc(C(F)(F)F)cc3)cn2)n1 (single isomer, unassigned) [Compound 93] |
| – | < 0.1 µM | < 0.01 µM | – | CC(C)[C@H]1C(C)N(C)C(=O)N1c1ccnc(N[C@@H](C)c2cn(-c3ccc(C(F)(F)F)cc3)cn2)n1 (single isomer, unassigned) [Compound 94] |
| < 0.01 µM | < 0.1 µM | – | – | CC(C)[C@H]1C(C)N(C)C(=O)N1c1ccnc(N[C@@H](C)c2cn(-c3ccc(C(F)(F)F)cc3)cn2)n1 (single isomer, unassigned) [Compound 95] |
| – | – | 0.0129 µM | – | CC(C)[C@H]1CN(C)C(=O)N1c1ccnc(N[C@@H](C)c2cn(-c3ccc(Cl)cc3)cn2)n1 [Compound 17, (S)-3-(2-(((S)-1-(1-(4-chlorophenyl)-1H-imidazol-4-yl)ethyl)amino)pyrimidin-4-yl)-4-isopropyl-1-methylimidazolidine-2-one] |
| – | – | 0.01 µM | – | [2H]C1([2H])NC(=O)N(c2ccnc(N[C@@H](C)c3cn(-c4ccc(C(F)(F)F)cc4)cn3)n2)[C@H]1C(C)C [Compound 83, (S)-1-(2-(((S)-1-(1-(4-(trifluoromethyl)phenyl)-1H-imidazol-4-yl)ethyl)amino)pyrimidin-4-yl)-4,4-dideutero-5-isopropylimidazolidine-2-one] |
| – | – | 0.039 µM | – | [2H]C([2H])([2H])N1C(=O)N(c2ccnc(N[C@@H](C)c3cn(-c4ccc(Cl)cc4)cn3)n2)[C@@H](C(C)C)C1([2H])[2H] [Compound 89, (S)-3-(2-(((S)-1-(1-(4-chlorophenyl)-1H-imidazol-4-yl)ethyl)amino)pyrimidin-4-yl)-5,5-dideutero-4-isopropyl-1-deuteromethylimidazolidine-2-one] |
| – | – | 0.02 µM | – | CC(C)[C@@H]1N(c2ccnc(N[C@@H](C)c3cn(-c4ccc(C(F)(F)F)cc4)cn3)n2)C(=O)NC1(C)C [Compound 101] |

— US10682352B2, “Compound having mutant IDH inhibitory activity, preparation method and use thereof” (SHANGHAI HAIHE PHARMACEUTICAL CO., LTD., priority 2016, dated 2020)
